The target of this data set is APOL1. Conditions: ASO.

Where “and” joins values, the source holds several entries; their conditions need not be identical. Equal entries are not always repeated. After the bases stand the sugars from the 5' end (letter, count) and the backbone: PS all phosphorothioate, else s phosphorothioate and o phosphodiester by linkage. Methylation of C is not given here. e = 2'-O-(2-methoxyethyl) (MOE); k = constrained ethyl (cEt); d = 2'-deoxy (DNA)

Sequence “AAGTATTGCCAGCTAA (sugars kkkddddkekekdddd, PS)” yielded a target mRNA inhibition (A431, 2 µM) of 47%. For the setting “A431, 2 µM”, “AATTATGGAATTGCAG (sugars kddddkekekeddddd, PS)” showed a target mRNA inhibition of 55%. Take “AATTATGGAATTGCAG (sugars kkddddkekekkdddd, PS)”: the target mRNA inhibition (A431, 2 µM) amounted to 35%. With “AATTCTATTAGAGGGC (sugars k2 d4 e3 k2 d5, PS)”, the target mRNA inhibition (A431, 2 µM) amounted to 73%.

“AATTCTATTAGAGGGC (sugars kkkddddkekeddddd, PS)” showed a target mRNA inhibition (A431, 2 µM) of 82%.

Under “A431, 2 µM”, “ACACATCATTGGGTTA (sugars k3 d4 k3 e1 d5, PS)” showed a target mRNA inhibition of 59%. The sequence “ACACATCATTGGGTTA (sugars kddddkekekeddddd, PS)” displayed a target mRNA inhibition (A431, 2 µM) of 36%. The sequence “ACACATCATTGGGTTA (sugars kkdddddkekeddddd, PS)” gave a target mRNA inhibition (A431, 2 µM) of 72%. Sequence “ACACATCATTGGGTTA (sugars kkddddkekekddddd, PS)” registered a target mRNA inhibition (A431, 2 µM) of 50%. Sequence “ACATCATTGGGTTATG (sugars kkddddkekekkdddd, PS)” gave a target mRNA inhibition (A431, 2 µM) of 70%. As to “ACGCAATGCTGACTTG (sugars k2 d4 e3 k2 d5, PS)”, where the note is “A431, 2 µM”, the target mRNA inhibition is 87%. Turning to “ACGCAATGCTGACTTG (sugars k3 d5 k3 d5, PS)”, the target mRNA inhibition runs as follows: (A431, 0.0625 µM) 54%; (A431, 0.25 µM) 83%; (A431, 1 µM) 94%; (A431, 2 µM) 94%.

For the setting “A431, 2 µM”, “ACGCAATGCTGACTTG (sugars kddddkekekeddddd, PS)” showed a target mRNA inhibition of 72%. Turning to ACTGAGGGTATATGAA (sugars k4 d9 k3, PS), the target mRNA inhibition was 22% (A431, 0.0625 µM); 40% (A431, 0.25 µM); 58% (A431, 1 µM). AGATTGGCTCAGTGAC (sugars k4 d9 k3, PS): the target mRNA inhibition is 44% and 27% (A431, 0.0625 µM); 70% and 52% (A431, 0.25 µM); 87% and 76% (A431, 1 µM).

Consider “AGATTGGCTCTGGCTC (sugars kdddddkekekddddd, PS)”, for which the target mRNA inhibition (A431, 2 µM) turned out to be 40%. Under “A431, 2 µM”, “AGATTGGCTCTGGCTC (sugars kkddddkekekkdddd, PS)” showed a target mRNA inhibition of 18%. For the sequence AGCAGCCACGAATCCG (sugars k4 d9 k3, PS), the target mRNA inhibition runs as follows: (A431, 0.0625 µM) 40%; (A431, 0.25 µM) 66%; (A431, 1 µM) 63%.

In the case of “AGCTTTAAACTCAGGT (sugars k3 d5 k3 d5, PS)”, the target mRNA inhibition (A431, 2 µM) stood at 68%. The same measure, in the same setting: next, “AGCTTTAAACTCAGGT (sugars kekddddeekkddddd, PS)”: 82%. Turning to “AGCTTTAAACTCAGGT (sugars kkkddddkekeddddd, PS)”, under “A431, 2 µM”, the target mRNA inhibition was found to be 85%. For the sequence “AGTATTGTTTTTGTGG (sugars kkdddddkekeddddd, PS)”, the target mRNA inhibition (A431, 2 µM) stood at 91%. “AGTATTGTTTTTGTGG (sugars kkddddkekekddddd, PS)” gave a target mRNA inhibition (A431, 2 µM) of 75%. Take “AGTATTGTTTTTGTGG (sugars kkkddddkekekdddd, PS)”: the target mRNA inhibition (A431, 2 µM) is 55%. Turning to AGTCATTAGTGCTATA (sugars k4 d9 k3, PS), the target mRNA inhibition runs as follows: (A431, 0.0625 µM) 57%; (A431, 0.25 µM) 78%; (A431, 1 µM) 88%. AGTTTCATATTCACCC (sugars k4 d9 k3, PS) gave a target mRNA inhibition (A431, 0.0625 µM) of 58%; a target mRNA inhibition (A431, 0.25 µM) of 83%; a target mRNA inhibition (A431, 1 µM) of 94%. For the sequence “AGTTTTGTAAGTGCAA (sugars k2 d4 e4 k2 d4, PS)”, the target mRNA inhibition reads like this: (A431, 0.0156 µM) 4%; (A431, 0.0625 µM) 23%; (A431, 0.25 µM) 80%; (A431, 1 µM) 91%; (A431, 2 µM) 94%. For the sequence “AGTTTTGTAAGTGCAA (sugars kkddddkekekkdddd, PS)”, the target mRNA inhibition (A431, 2 µM) was found to be 84%. Still for that read-out and setting: for “ATATCAGATGGGTACT (sugars kkkddddkekekdddd, PS)” the value was 28%. On to “ATCAGATGGGTACTTC (sugars k3 d4 k3 e1 d5, PS)”, for which, for the setting “A431, 2 µM”, the target mRNA inhibition came out at 88%. As to ATCAGATGGGTACTTC (sugars k4 d9 k3, PS), the target mRNA inhibition (A431, 0.0625 µM) worked out at 53%; the target mRNA inhibition (A431, 0.25 µM) was 78%; the target mRNA inhibition (A431, 1 µM) was 89%.

Take “ATCAGATGGGTACTTC (sugars kkddddkekekddddd, PS)”: the target mRNA inhibition (A431, 2 µM) was 66%. As to ATGCGGTACTGACTGA (sugars k4 d9 k3, PS), the target mRNA inhibition runs as follows: (A431, 0.0625 µM) 49%; (A431, 0.25 µM) 69%; (A431, 1 µM) 88%. “ATGCTAATTTTCTGAC (sugars k2 d4 e3 k2 d5, PS)” came in with a target mRNA inhibition (A431, 2 µM) of 88%. “ATGCTAATTTTCTGAC (sugars kkddddkekekddddd, PS)”: the target mRNA inhibition reads like this: (A431, 0.0156 µM) 25%; (A431, 0.0625 µM) 59%; (A431, 0.25 µM) 84%; (A431, 1 µM) 93%; (A431, 2 µM) 97%.

Regarding ATGTCTCAAACTCCAC (sugars k4 d9 k3, PS), the target mRNA inhibition runs as follows: (A431, 0.0625 µM) 29%; (A431, 0.25 µM) 63%; (A431, 1 µM) 83%. For the sequence “ATTCAGAATTTCCACT (sugars k2 d4 e3 k2 d5, PS)”, the target mRNA inhibition (A431, 2 µM) turned out to be 77%. On the same count and under the same terms, for “ATTCAGAATTTCCACT (sugars kkdddddkekeddddd, PS)” the value was 88%.

In turn, “ATTCAGAATTTCCACT (sugars kkddddekekeddddd, PS)” returned a target mRNA inhibition (A431, 2 µM) of 87%.

Take “ATTCTATTAGAGGGCT (sugars k2 d4 e3 k2 d5, PS)”: the target mRNA inhibition (A431, 2 µM) amounted to 70%. With “ATTCTATTAGAGGGCT (sugars kdddddkekekddddd, PS)”, the target mRNA inhibition (A431, 2 µM) was determined as 45%. In turn, “ATTCTATTAGAGGGCT (sugars kkddddkekekkdddd, PS)” displayed a target mRNA inhibition (A431, 2 µM) of 34%. On to “ATTCTCATGGTACAGG (sugars k2 d4 e3 k2 d5, PS)”, for which the target mRNA inhibition (A431, 0.0156 µM) was 13%; the target mRNA inhibition (A431, 0.0625 µM) came to 34%; the target mRNA inhibition (A431, 0.25 µM) was 72%; the target mRNA inhibition (A431, 1 µM) was found to be 90%; the target mRNA inhibition (A431, 2 µM) is 92%.

Take “ATTCTCATGGTACAGG (sugars kdddddkekekddddd, PS)”: the target mRNA inhibition (A431, 2 µM) was found to be 83%. Same read-out and setting: next, “ATTCTCATGGTACAGG (sugars kkddddkdkdkddddd, PS)”: 84%; “ATTCTCATGGTACAGG (sugars kkkddddkdkdkdddd, PS)”: 81%. For ATTCTGTGTGCTCACT (sugars k4 d9 k3, PS), the target mRNA inhibition is, setting by setting: (A431, 0.0625 µM) 65%; (A431, 0.25 µM) 80%; (A431, 1 µM) 92%.

With ATTGGCTCAGTGACCC (sugars k4 d9 k3, PS), the target mRNA inhibition by setting is: (A431, 0.25 µM) 72% and 76%; (A431, 1 µM) 88% and 86%. In the case of “ATTTCTTGATGTGGTG (sugars kkddddkekekkdddd, PS)”, the target mRNA inhibition (A431, 2 µM) came to 69%. Consider CAAGGTTGTCCAGAGC (sugars k4 d9 k3, PS), for which the target mRNA inhibition was found to be 31% (A431, 0.0625 µM); 58% (A431, 0.25 µM); 64% (A431, 1 µM). As for “CACATCATTGGGTTAT (sugars k2 d4 e3 k2 d5, PS)”, the target mRNA inhibition (A431, 2 µM) worked out at 86%. As for “CACATCATTGGGTTAT (sugars kkddddkdkdkddddd, PS)”, where the note is “A431, 2 µM”, the target mRNA inhibition was 79%.

Regarding CACCTGTTCACCGCTT (sugars k4 d9 k3, PS), the target mRNA inhibition runs as follows: (A431, 0.0625 µM) 41%; (A431, 0.25 µM) 67%; (A431, 1 µM) 87%. Consider CACTTGAGTCATTTGC (sugars k4 d9 k3, PS), for which the target mRNA inhibition is 37% (A431, 0.0625 µM); 73% (A431, 0.25 µM); 86% (A431, 1 µM).

Take CACTTTACATGCACGA (sugars k4 d9 k3, PS): the target mRNA inhibition runs as follows: (A431, 0.0625 µM) 26%; (A431, 0.25 µM) 65%; (A431, 1 µM) 85%. Where the note is “A431, 2 µM”, “CACTTTATACCAGTGT (sugars kkddddekekeddddd, PS)” yielded a target mRNA inhibition of 0%. On to CAGTTCCCATTTTTCC (sugars k4 d9 k3, PS), for which the target mRNA inhibition stood at 62% (A431, 0.0625 µM); 83% (A431, 0.25 µM); 94% (A431, 1 µM).

With “CAGTTTTGTAAGTGCA (sugars k3 d4 k3 e1 d5, PS)”, the target mRNA inhibition (A431, 2 µM) stood at 92%.

On to “CAGTTTTGTAAGTGCA (sugars k3 d5 k3 d5, PS)”, for which, for the setting “A431, 2 µM”, the target mRNA inhibition was 97%. For the setting “A431, 2 µM”, “CAGTTTTGTAAGTGCA (sugars kkddddekekeddddd, PS)” yielded a target mRNA inhibition of 91%. For the setting “A431, 2 µM”, “CAGTTTTGTAAGTGCA (sugars kkddddkekekddddd, PS)” came in with a target mRNA inhibition of 91%.

Consider “CAGTTTTGTAAGTGCA (sugars kkddddkekekkdddd, PS)”, for which the target mRNA inhibition (A431, 2 µM) is 18%. For the sequence “CATTCAGAATTTCCAC (sugars k3 d5 k3 d5, PS)”, the target mRNA inhibition (A431, 2 µM) is 94%.

Take “CATTCAGAATTTCCAC (sugars kdddddkekekddddd, PS)”: the target mRNA inhibition (A431, 2 µM) turned out to be 67%. Under “A431, 2 µM”, “CATTCAGAATTTCCAC (sugars kkdddddkekeddddd, PS)” gave a target mRNA inhibition of 84%. As for “CATTCAGAATTTCCAC (sugars kkddddkdkdkddddd, PS)”, for the setting “A431, 2 µM”, the target mRNA inhibition is 84%. In turn, “CATTCAGAATTTCCAC (sugars kkkddddkdkdkdddd, PS)” showed a target mRNA inhibition (A431, 2 µM) of 88%. Under “A431, 2 µM”, “CATTCAGAATTTCCAC (sugars kkkddddkekekdddd, PS)” displayed a target mRNA inhibition of 65%. In the case of CCACATTTGAGATTAT (sugars k4 d9 k3, PS), the target mRNA inhibition by setting is: (A431, 0.0625 µM) 37%; (A431, 0.25 µM) 72%; (A431, 1 µM) 90%. Take CCAGCAAAGACAAGAA (sugars k4 d9 k3, PS): the target mRNA inhibition is 9% and 0% (A431, 0.0625 µM); 49% and 30% (A431, 0.25 µM); 64% and 55% and 50% (A431, 1 µM). Sequence CCCCTGCCAGGCATAT (sugars k4 d9 k3, PS) displayed a target mRNA inhibition (A431, 0.0625 µM) of 22%; a target mRNA inhibition (A431, 0.25 µM) of 42%; a target mRNA inhibition (A431, 1 µM) of 44%.

Source of the values: the OligoGym collection.
